We go through 15 compounds from patent US9458172B2, “Pyridinyl and pyrimidinyl sulfoxide and sulfone derivatives” (priority 2012, dated 2016).

Assay [1] has as its system tumor cell lines. As to conditions: broad range of tumor cell lines; cited from earlier work.
For assay [2], the system named is A2780 cells. Briefly: In-Vitro Cell Proliferation Assay (SRB). As to conditions: Homo sapiens, A2780, 72 h.
Description: Assay 2: In-Vitro Cell Proliferation Assay
Assay Method. […] The compounds were then further diluted to 10 OX final concentration in culture media, whereupon 20 μL of each dilution was added to the plated cells with controls (e.g. DMSO and blank) to make a final volume of 200 μL. The final DMSO concentration in each well was 0.1%. The plates were then incubated for 72 h at 37° C. in a 5% CO2 incubator. The number of viable cells was then assessed using sulforhodamine B (SRB) assay. Cells were fixed at 4° C. for 1 h with the addition of 50 μL 30% trichloroacetic acid (TCA) to make a final concentration of 6% TCA. The plates were washed four times with H2O and allowed to dry for at least 1 h, whereupon 100 μL of a 4% SRB in 1% acetic acid solution was added to each well and incubated at rt for at least 30 min. The plates were then washed three times with 1% acetic acid, dried, and treated with 100 μL of 10 mM Tris-Base solution. The plates were then read in a microplate reader at an absorbance of 570 nm. Background was generated on a separate plate with media only.
Determination of IC50 Values. First, the signals from the background plate were averaged, then the background was subtracted from the test plates.
The specificity of the compounds were determined via cell viability assay in the presence of the compound and either NAM or NMN Percent inhibitions were determined using the method given above.
In assay [3] the target is NAMPT (Homo sapiens (Human), UniProt P43490). Briefly: Biochemical Inhibition Assay (NAMPT enzymatic reaction, NMN quantified by mass spectrometry). Particulars: 33 nM recombinant His-tagged NAMPT, 1 μM NAM, 30 min at rt. The gist of the method: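 His-tagged human NAMPT from E. coli preincubated 15 min at rt with compound in 50 mM Hepes pH 7.5, 50 mM NaCl, 5 mM MgCl2, 1 mM THP, then reacted 30 min at rt with 1 μM NAM, […] PRPP, 2.5 mM ATP. NMN quantified by RapidFire mass spectrometry, normalized to L-Cystathionine, background subtracted.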
Sequence of NAMPT (P43490 whole entry): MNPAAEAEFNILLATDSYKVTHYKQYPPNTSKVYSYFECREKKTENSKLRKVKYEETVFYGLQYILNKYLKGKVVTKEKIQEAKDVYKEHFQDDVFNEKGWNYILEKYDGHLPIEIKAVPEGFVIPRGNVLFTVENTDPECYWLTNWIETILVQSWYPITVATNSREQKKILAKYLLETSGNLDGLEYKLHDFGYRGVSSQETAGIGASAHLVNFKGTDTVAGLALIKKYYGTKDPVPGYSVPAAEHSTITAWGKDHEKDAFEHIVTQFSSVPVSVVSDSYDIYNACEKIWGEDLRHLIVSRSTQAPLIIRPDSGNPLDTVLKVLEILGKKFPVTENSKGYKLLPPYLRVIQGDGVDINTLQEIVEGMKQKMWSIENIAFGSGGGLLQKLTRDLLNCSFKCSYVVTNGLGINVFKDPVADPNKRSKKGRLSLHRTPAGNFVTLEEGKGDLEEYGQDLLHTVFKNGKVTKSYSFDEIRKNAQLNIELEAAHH

For assay [4], the system named is mouse mammary carcinoma. As to conditions: mouse mammary carcinoma model; cited from earlier work.
[5] abbreviates: read-out: Cell Proliferation (IC50), A2780 cells, 72 h, sulforhodamine B.
The mark [6] stands for this setting: read-out: Cell Proliferation (IC50).

Like-named read-outs stand apart in the source and are kept apart here.

In the case of `N#CN=C(NCCCCCCOc1ccc(Cl)cc1)Nc1ccncc1` [CHS-828], the cell growth result in assay [1] is reported as “potently inhibit cell growth”.

In the case of `CCCn1cc(S(=O)(=O)c2ccc(CNC(=O)c3cc4cnccc4[nH]3)nc2)cn1` [Example 171, N-[[5-(1-propylpyrazol-4-yl)sulfonyl-2-pyridyl]methyl]-1H-pyrrolo[3,2-c]pyridine-2-carboxamide], the IC50 in assay [2] (setting [5]) came to 51.2 nM; in assay [3], 62 nM.

As to `CC(C)CN1CCC([S+]([O-])c2ccc(CNC(=O)c3ccc4nccn4c3)nc2)CC1` (stereo not drawn) [Example 172, N-[[5-[(1-isobutyl-4-piperidyl)sulfinyl]-2-pyridyl]methyl]imidazo[1,2-a]pyridine-6-carboxamide], the IC50 in assay [2] (setting [6]) was determined as 106 nM; in assay [3], 249 nM.

Regarding `O=C(NCc1ccc([S+]([O-])C2CCN(CC(F)(F)F)CC2)cn1)c1ccc2nccn2c1` (stereo not drawn) [Example 173, N-[[5-[[1-(2,2,2-trifluoroethyl)-4-piperidyl]sulfinyl]-2-pyridyl]methyl]imidazo[1,2-a]pyridine-6-carboxamide], the IC50 in assay [2] (setting [6]) stood at 63.1 nM; in assay [3] it was 202 nM.

For the compound `N#Cc1cncc(S(=O)(=O)c2ccc(CNC(=O)c3cc4ccncc4o3)nc2)c1` [Example 174, N-[[5-[(5-cyano-3-pyridyl)sulfonyl]-2-pyridyl]methyl]furo[2,3-c]pyridine-2-carboxamide], the IC50 in assay [2] (setting [6]) was 116 nM; in assay [3] it was 217 nM.

Take `CCn1cc(S(=O)(=O)c2ccc(CNC(=O)N3Cc4ccncc4C3)nc2)cn1` [Example 177, N-[[5-(1-ethylpyrazol-4-yl)sulfonyl-2-pyridyl]methyl]-1,3-dihydropyrrolo[3,4-c]pyridine-2-carboxamide]: the IC50 in assay [2] (setting [5]) stood at 264 nM; in assay [3] it was 32 nM.

On to `O=C(NCc1ccc(S(=O)(=O)c2ccccc2)cn1)N1Cc2cn[nH]c2C1` [Example 178, N-[[5-(benzenesulfonyl)-2-pyridyl]methyl]-4,6-dihydro-1H-pyrrolo[3,4-c]pyrazole-5-carboxamide], for which the IC50 in assay [2] (setting [6]) and in assay [3] was 2000 nM each time.

As to `Cn1ncc2c1CN(C(=O)NCc1ccc(S(=O)(=O)c3ccccc3)cn1)C2` [Example 179, N-[[5-(benzenesulfonyl)-2-pyridyl]methyl]-1-methyl-4,6-dihydropyrrolo[3,4-c]pyrazole-5-carboxamide], the results for the IC50 in assay [2] (setting [5]) and in assay [3] were 2000 nM and 1380 nM, respectively.

With `O=C(NCc1ccc(S(=O)(=O)N2CCCCC2)cn1)N1Cc2cn[nH]c2C1` [Example 180, N-[[5-(1-piperidylsulfonyl)-2-pyridyl]methyl]-4,6-dihydro-1H-pyrrolo[3,4-c]pyrazole-5-carboxamide], the IC50 in assay [2] (setting [6]) stood at 2000 nM; in assay [3], 562 nM.

For the compound `O=C(NCc1ncc(S(=O)(=O)c2cc(F)cc(F)c2)cn1)c1cc2ccncc2o1` [Example 182, N-[[5-(3,5-difluorophenyl)sulfonyl-pyrimidin-2-yl]methyl]furo[2,3-c]pyridine-2-carboxamide], the IC50 amounted to 40.5 nM in assay [2] (setting [6]) and 25.1 nM in assay [3].

Consider `O=C(NCc1ccc(S(=O)(=O)c2ccccc2)cn1)c1ccc2nccn2c1` [Example 184, N-[[5-(benzenesulfonyl)-2-pyridyl]methyl]imidazo[1,2-a]pyridine-6-carboxamide], for which the IC50 in assay [2] (setting [5]) is 2000 nM; in assay [3] it was 99.2 nM.

`O=C(NCc1ccc(S(=O)(=O)c2ccccc2)cn1)c1cnc2nccn2c1` [Example 185, N-[[5-(benzenesulfonyl)-2-pyridyl]methyl]imidazo[1,2-a]pyrimidine-6-carboxamide]: the IC50 in assay [2] (setting [6]) amounted to 495 nM; in assay [3], 20.2 nM.

As to `O=C(NCc1ccc(S(=O)(=O)c2ccccc2)cn1)c1cc2ccncc2s1` [Example 186, N-[[5-(benzenesulfonyl)-2-pyridyl]methyl]thieno[2,3-c]pyridine-2-carboxamide], the results for the IC50 in assay [2] (setting [5]) and in assay [3] were 918 nM and 125 nM, respectively.

In the case of `O=C(NCc1ncc(S(=O)(=O)c2ccccc2)cn1)c1cc2ccncc2s1` [Example 187, N-[[5-(benzenesulfonyl)pyrimidin-2-yl]methyl]thieno[2,3-c]pyridine-2-carboxamide], the IC50 in assay [2] (setting [6]) was 2000 nM; in assay [3] it was 433 nM.

For the compound `O=C(/C=C/c1cccnc1)NCCCCC1CCN(C(=O)c2ccccc2)CC1` [FK866], in assay [4], the NAD levels result is “reduce NAD levels”, the tumor growth entry is recorded as “induce a delay in tumor growth” and the tumor radiosensitivity entry is given as “enhance tumor radiosensitivity”.
